# Data taken from publication PMC7144022, “Quinolinecarboxamides Inhibit the Replication of the Bovine Viral Diarrhea Virus by Targeting a Hot Spot for the Inhibition of Pestivirus Replication in the RNA-Dependent RNA Polymerase” (Molecules, 2020).
# Key:
# BVDV NADL virus = experiment: CPE-based antiviral assay, BVDV NADL in MDBK cells (MTS/PMS); details: for EC50: Bovine viral diarrhea virus isolates and strains, MDBK, 72 h; for S.I.: selectivity index, CC50 vs EC50
# [1] = Cytotoxicity assay, proliferation of exponentially growing MDBK cells (MTS/PMS); format: cell-based, bovine; details: bovine
# Description: Assays were carried out, as described previously.
# [2] = sheet CSFCII#, potency relative to TO502-2403 (EC50 0.2 µM)
# [3] = sheet CSFCI#, potency relative to TO505-6180 (EC50 0.07 µM)
SMILES,EC50 (BVDV NADL virus) [µM],S.I. (BVDV NADL virus),fold increase (BVDV NADL virus; [2]),CC50 at 5 days [1] [µM],fold increase (BVDV NADL virus; [3])
"O=C(Nc1nccs1)c1cc(-c2ccccc2)nc2ccccc12 [CSFC-16, O=C(c1cc(nc2ccccc12)c3ccccc3)Nc4nccs4]",30,3,0.00667,> 100,
"Cc1ccc2nc(NC(=O)c3ccnc4ccccc34)sc2c1 [CSFC-17, Cc1ccc2nc(sc2c1)NC(=O)c4ccnc3ccccc34]",100,1,0.002,> 100,
"O=C(Nc1nc2ccc(F)cc2s1)c1cc(-c2ccccc2)nc2ccccc12 [CSFC-18, Fc1ccc2nc(NC(=O)c3cc(nc4ccccc43)c3ccccc3)sc2c1]",0.3,333,,> 100,0.23
"COc1cccc2sc(NC(=O)c3cc(-c4ccccc4)nc4ccccc34)nc12 [CSFC-19, COc1cccc2sc(nc12)NC(=O)c1cc(nc2ccccc21)c1ccccc1]",0.4,250,,> 100,0.18
"Cc1ccc2nc(N(C)C(=O)c3cc(-c4ccccc4)nc4ccccc34)sc2c1 [CSFC-21, O=C(c1cc(nc2ccccc21)c1ccccc1)N(C)c1nc2ccc(C)cc2s1]",> 100,1,,> 100,0.0007
"Cc1ccc2nc(NC(=O)c3ccncc3)sc2c1 [CSFC-22, Cc1ccc2nc(NC(=O)c3ccncc3)sc2c1]",> 100,1,,> 100,0.0007
"Cc1ccc2nc(NC(=O)c3cccnc3)sc2c1 [CSFC-23, Cc1ccc2nc(NC(=O)c3cccnc3)sc2c1]",> 100,1,,> 100,0.0007
"Cc1ccc2nc(NC(=O)c3cccc4ccccc34)sc2c1 [CSFC-24, Cc1ccc2nc(NC(=O)c3cccc4ccccc43)sc2c1]",> 100,1,,> 100,0.0007
"Cc1ccc2nc(NC(=O)c3ccccn3)sc2c1 [CSFC-25, Cc1ccc2nc(NC(=O)c3ccccn3)sc2c1]",> 100,1,,> 100,0.0007
"Cc1ccc2nc(NC(=O)c3cc4ccccc4n3C)sc2c1 [CSFC-26, Cn1c2ccccc2cc1C(=O)Nc1nc2ccc(C)cc2s1]",> 100,1,,> 100,0.0007
"Cc1ccc2nc(NC(=O)c3cc[n+]([O-])cc3)sc2c1 [CSFC-27, [O-][n+]1ccc(cc1)C(=O)Nc1nc2ccc(C)cc2s1]",> 100,1,,> 100,0.0007
"Cc1ccc2nc(NC(=O)c3cc4ccccc4[nH]3)sc2c1 [CSFC-28, Cc1ccc2nc(NC(=O)c3cc4ccccc4[NH]3)sc2c1]",> 100,1,,> 100,0.0007
"Cc1ccc2nc(NC(=O)c3ccccc3)sc2c1 [CSFC-29, Cc1ccc2nc(NC(=O)c3ccccc3)sc2c1]",> 100,1,,> 100,0.0007
"Cc1ccc2nc(NC(=O)c3ncc[nH]3)sc2c1 [CSFC-30, Cc1ccc2nc(NC(=O)c3ncc[NH]3)sc2c1]",> 100,1,,> 100,0.0007
"Cc1ccc2nc(NC(=O)c3cc(O)nc4ccccc34)sc2c1 [CSFC-31, Oc1nc2ccccc2c(c1)C(=O)Nc1nc2ccc(C)cc2s1]",> 100,1,,> 100,0.0007
"CC(C)(C)c1cc(NC(=O)c2cc(-c3ccccc3)nc3ccccc23)no1 [CSFC-32, O=C(Nc1cc(on1)C(C)(C)C)c3cc(nc2ccccc23)c4ccccc4]",7.2,14,0.0278,> 100,
"Cc1ccc2nc(NC(=O)c3nccn3C)sc2c1 [CSFC-33, Cn1ccnc1C(=O)Nc1nc2ccc(C)cc2s1]",46,2,,> 100,0.00152
"Cc1cccc2sc(NC(=O)c3cc(-c4ccco4)nc4ccccc34)nc12 [CSFC-35, Cc1cccc2sc(nc12)NC(=O)c1cc(nc2ccccc21)c1ccco1]",0.3,333,,> 100,0.23
"Cc1noc(C)c1NC(=O)c1cc(-c2ccccc2)nc2ccccc12 [CSFC-36, O=C(Nc1c(C)onc1C)c3cc(nc2ccccc23)c4ccccc4]",47.2,2,0.00424,> 100,
"Cc1noc(C)c1NC(=O)c1cc(-c2ccco2)nc2ccccc12 [CSFC-37, O=C(Nc1c(C)onc1C)c3cc(nc2ccccc23)c4ccco4]",34.2,3,0.00585,> 100,
"COc1ccc2nc(NC(=O)c3cc(-c4ccco4)nc4ccccc34)sc2c1 [CSFC-38, COc1ccc2nc(NC(=O)c3cc(nc4ccccc43)c3ccco3)sc2c1]",0.09,1111,,> 100,0.78
"Cc1cc2nc(NC(=O)c3cc(-c4ccco4)nc4ccccc34)sc2cc1C [CSFC-39, Cc1cc2nc(NC(=O)c3cc(nc4ccccc43)c3ccco3)sc2cc1C]",0.6,167,,> 100,0.12
"Cc1cc(NC(=O)c2cc(-c3ccccc3)nc3ccccc23)no1 [CSFC-40, Cc1cc(no1)NC(=O)c3cc(nc2ccccc23)c4ccccc4]",94,1,0.00213,> 100,
"Cc1cc(NC(=O)c2cc(-c3ccccc3)nc3ccccc23)on1 [CSFC-41, O=C(Nc1cc(C)no1)c3cc(nc2ccccc23)c4ccccc4]",34.6,3,0.00578,> 100,
"Cc1cc(NC(=O)c2cc(-c3ccco3)nc3ccccc23)on1 [CSFC-42, O=C(Nc1cc(C)no1)c3cc(nc2ccccc23)c4ccco4]",17.5,6,0.0114,> 100,
"O=C(Nc1cc(-c2ccc(Br)cc2)on1)c1cc(-c2ccccc2)nc2ccccc12 [CSFC-43, O=C(Nc1cc(on1)c2ccc(Br)cc2)c4cc(nc3ccccc34)c5ccccc5]",4,26,0.05,> 100,
"O=C(Nc1ccn(-c2ccccc2)n1)c1cc(-c2ccco2)nc2ccccc12 [CSFC-44, O=C(Nc1ccn(n1)c2ccccc2)c4cc(nc3ccccc34)c5ccco5]",2.3,10,0.09,23,
"Cc1cccc2sc(NC(=O)c3cc(-c4cccs4)nc4ccccc34)nc12 [CSFC-46, Cc1cccc2sc(nc12)NC(=O)c4cc(nc3ccccc34)c5cccs5]",0.2,500,1.00,> 100,
"O=C(Nc1ccn(-c2ccccc2)n1)c1cc(-c2cccs2)nc2ccccc12 [CSFC-47, O=C(Nc1ccn(n1)c2ccccc2)c4cc(nc3ccccc34)c5cccs5]",1.7,59,0.12,> 100,
